The text below walks through data of patent US20260234165A1, “MACROCYCLIC COMPOUNDS, PREPARATION METHOD THEREFOR, AND USE THEREOF” (GENFLEET THERAPEUTICS (SHANGHAI) INC., priority 2004, published 2026).

Structures can show the parent of a compound that is named as a salt. Where two headings read alike, the source gives them in different places.

Holding throughout (format): cell-based, human
Test [1] relates to p-ERK in NCI-H441 cells (KRAS G12V mutation). The test can be described thus: Cell p-ERK assay (HTRF) in NCI-H441 cells. The conditions noted are these: NCI-H441 cells, 3 h compound incubation, HTRF p-ERK T202/Y204, read-out: H441 p-ERK IC50. The method in brief: (§1)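 AsPC-1 (10000/well) or NCI-H441 (20000/well) cells were seeded in RPMI-1640 with 10% FBS, grown overnight, then exposed to 3.16-fold compound dilutions (0.1% DMSO) for 3 h at 37 °C. Lysates were read for phospho-ERK T202/Y204 by HTRF; IC50 came from four-parameter fits of inhibition versus DMSO and blank wells.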
(Time-resolved FRET reads energy transfer from a long-lived donor to a nearby acceptor.)

Test [2] concerns p-ERK in AsPC-1 cells (KRAS G12D mutation). Nature of the test: Cell p-ERK assay (HTRF) in AsPC-1 cells. The conditions noted are these: AsPC-1 cells, 3 h compound incubation, HTRF p-ERK T202/Y204, read-out: AsPC-1 p-ERK IC50. The gist of the method:
as §1

Test [3] deals with AsPC-1 cells (KRAS G12D mutation). The test can be described thus: 3D cell proliferation assay (CellTiter Glo-3D), AsPC-1. The conditions noted are these: medium with 2% FBS, read-out: AsPC-1 AP IC50. From the text:
MIA PaCa-2 cells were purchased from ATCC, Cat. No. CRL-1420; AsPC-1 cells were purchased from ATCC, Cat. No. CRL-1682; NCI-H441 cells were purchased from ATCC, Cat. No. HTB-174: NCI-H1975 cells were purchased from ATCC. Cat. No. CRL-5908; DMEM medium was purchased from Gibco, Cat. No. 11995-065: RPMI-1040 medium was purchased from Gibco. Cat. No. H 18754093; FBS was purchased from Gibco, Cat. No. 10099-141C. penicillin, streptomycin double-antibiotic solution (PS) was purchased from Gibco, Cat. No. 15140-122; Horse serum was purchased from Gibco. Cat. No. 16050130: trypsin (containing EDTA) was purchased from Gibco, Cat. No. 25200-072; DMSO was purchased from VWRAMRESCO, Cat. No. 0231-500ML; 384-well cell culture plates were purchased from Corning, Cat. No. 3830; white-bottomed, opaque 384-well assay plates were purchased from Corning, Cat. No. 3570. CellTiter Glo-3D) kit was purchased from Promega. Cat. No. G9683; cell counter was purchased from CHEMOMETEC, model: NC-200: microplate reader was purchased from PerkinElmer, model: EnVision.
MIA PaCa-2, a human pancreatic cancer cell strain endogenously containing a KRAS^G12C mutation, was cultured in a complete medium containing DMEM+10% FBS+2.5% Horse serum+1% PS. AsPC-1, a human pancreatic cancer cell strain endogenously containing a […] mutation, was cultured in a complete medium containing RPMI-1640+10% FBS+1% PS. NCI-H441 cells, a human lung cancer cell strain endogenously containing a […] mutation, were cultured in a complete medium containing RPMI-1640+10% FBS+1% PS. NCI-H1975, a KRAS wild-type human lung cancer cell strain whose cell proliferation depends on KRAS activity, was cultured in a complete medium containing RPMI-1640+10% FBS+1% PS.
The cells were digested with trypsin (containing EDTA), collected in their respective low-serum complete media containing 2% FBS (for MIA Paca-2 cell culture: DMEM+2% FBS+0.5% Horse serum+1% PS), and counted. After the cell density was adjusted as required, 200 MIA PaCa-2 cells, 800 AsPC-1 cells, 800 NCI-H441 cells, or 400 NCI-H1975 cells per well were seeded into a 384-well cell culture plate, with the volume of the medium in each well being 45 μL. The cell culture plate was incubated in an incubator at 37° C. with 5% CO2, overnight. A series of 3.16-fold gradient dilutions of a 1000× compound stock solution were prepared with DMSO, and then diluted 100-fold with the complete medium containing 2% FBS described above to give 10- compound stock solutions. On the day after cell seeding, 5 μL of the 10- compound stock solution was added to each cell culture well. As a result, the final concentration of the compound in the cell culture well became 1×, and the DMSO content in the well was 0.1%. In addition to the compound-treated wells described above, cell-containing DMSO control wells (with 5 μL of the complete medium containing 1% DMSO added to each well) and cell-free medium control wells (containing 50 μL of the complete medium with 2% FBS) were also set. The culture plate was incubated in an incubator at 37° C. with 5% CO2 for another 5 days, and then 30 μL of CellTiter-Glo working solution was added to each well. The mixture was well mixed, incubated for 30 min, left to stand at room temperature for 30 min, and then transferred to a white-bottomed, opaque 384-well assay plate at 40 μL/well. The chemiluminescence values (RLU) were measured using a microplate reader, and the cell proliferation inhibition rate for each well was calculated: IR (%)=(RLUDMSO—RLUcompound)/(RLUDMSO−RLUblank)×100%, where RLUDMSO is the average RLU signal value from the DMSO control well samples, RLUblank is the average RLU signal value from the medium control well samples, and RLUcompound is the RLU signal value from the compound-treated well samples. […]
(Cellular ATP, detected with luciferase, serves as a proxy for viable cell number.)

Another test has as its system NCI-H441 cells. The test can be described thus: 3D cell proliferation assay (CellTiter Glo-3D), NCI-H441. The conditions noted are these: medium with 2% FBS, read-out: H441 AP IC50. The method in brief: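 Luminescence read-out (CellTiter-Glo 3D) after 5-day compound exposure at 37 °C, 5% CO2. Cells: NCI-H441 and AsPC-1, 800/well, RPMI-1640 + 2% FBS, 0.1% DMSO final. IC50 by four-parameter fit of % inhibition against log concentration.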

Setting [4] is: Homo sapiens, ASPC1, 3D cell proliferation (CellTiter Glo-3D).
The mark [5] stands for this setting: Homo sapiens, NCI-H441, 3D cell proliferation (CellTiter Glo-3D).
Setting [6] is: 3D cell proliferation (CellTiter Glo-3D).

As a reminder, the IC50 is the point on the concentration scale where inhibition reaches its midpoint. `CCn1c(-c2cc(OC[C@@H]3CCCN3Cc3ccn(C)n3)cnc2[C@H](C)OC)c2c3cc(ccc31)-c1csc(n1)C[C@H](NC(=O)[C@H]1[C@H](C)[C@@H]1C)C(=O)N1CCC[C@H](N1)C(=O)OCC(C)(C)C2` (atropisomer, axis not shown; (Ra)) [Compound Z784-1, (1r,2R,3S)—N-((6^3S,4S,Z)—(Ra)-1^2-5-(((S)-1-((1-methyl-1H-pyrazol-3-yl)methyl)pyrrolidin-2-yl)methoxy)-(2-((S)-1-methoxyethyl)-pyridin-3-yl)-10,10-dimethyl-5,7-dioxo-6^1,6^2,6^3,6^4,6^5,6^6-hexahydro-1^1H-8-oxa-2(4,2)-thiazola-1(5,3)-indola-6(1.3)-pyridazinacycloundecaphane-4-yl)-2,3-dimethylcyclopropane-1-carboxamide]: the IC50 in test [1] (Homo sapiens, NCI-H441, 3 h) worked out at 0.9 nM; in test [2] (Homo sapiens, ASPC1, 3 h), 0.89 nM; in test [3] (setting [4]), 1.37 nM; with NCI-H441 cells (setting [5]), 0.93 nM.
`CCn1c(-c2cc(OCCN3CCN(C)S(=O)(=O)CC3)cnc2[C@H](C)OC)c2c3cc(ccc31)-c1csc(n1)C[C@H](NC(=O)[C@H]1[C@H](C)[C@@H]1C)C(=O)N1CCC[C@H](N1)C(=O)OCC(C)(C)C2` (atropisomer, axis not shown; (Ra)) [Compound Z796]: the IC50 worked out at 0.55 nM in test [1] (Homo sapiens, NCI-H441, 3 h); 0.42 nM in test [2] (Homo sapiens, ASPC1, 3 h); 1.1 nM in test [3] (setting [4]); 0.28 nM in the test with NCI-H441 cells (setting [5]).
As for `CCn1c(-c2cc(C#CCN3CCC(Nc4ccccc4P(C)(C)=O)CC3)cnc2[C@H](C)OC)c2c3cc(ccc31)-c1csc(n1)C[C@H](NC(=O)[C@H]1[C@H](C)[C@@H]1C)C(=O)N1CCC[C@H](N1)C(=O)OCC(C)(C)C2` (atropisomer, axis not shown; (Ra)) [Compound Z1062, (1r,2R,3S)—N-((6^35,4S,Z)-1^2-(5-(3-(4-((2-(dimethylphosphoryl)phenyl)amino)piperidin-1-yl)prop-1-yn-1-yl)-(Ra)-2-((S)-1-methoxyethyl)pyridin-3-yl)-1^1-ethyl-10,10-dimethyl-5,7-dioxo-6^1,6^2,6^3,6^4,6^5,6^6-hexahydro-1^1H-8-oxa-2(4,2)-thiazola-1(5,3)-indola-6(1,3)-pyridazinacycloundecaphane-4-yl)-2,3-dimethylcyclopropane-1-carboxamide], the half-maximal inhibitory concentration (IC50) amounted to 0.53 nM in test [1] (Homo sapiens, NCI-H441, 3 h); 0.82 nM in test [2] (Homo sapiens, ASPC1, 3 h); 0.94 nM in test [3] (setting [4]); 1.3 nM in the test with NCI-H441 cells (setting [5]).
As for `CCn1c(-c2cc(OC[C@H]3CCCN3Cc3ccn(C)n3)cnc2[C@H](C)OC)c2c3cc(ccc31)-c1csc(n1)C[C@H](NC(=O)[C@H]1[C@H](C)[C@@H]1C)C(=O)N1CCC[C@H](N1)C(=O)OCC(C)(C)C2` (atropisomer, axis not shown; (Ra)) [Compound Z784-2, (1r,2R,3S)—N-((6^3S,4S,Z)—(Ra)-1^2-5-(((R)-1-((1-methyl-1H-pyrazol-3-yl)methyl)pyrrolidin-2-yl)methoxy)-(2-((S)-1-methoxyethyl)-pyridin-3-yl)-10,10-dimethyl-5,7-dioxo-6^1,6^2,6^3,6^4,6^5,6^6-hexahydro-1^1H-8-oxa-2(4,2)-thiazola-1(5,3)-indola-6(1.3)-pyridazinacycloundecaphane-4-yl)-2,3-dimethylcyclopropane-1-carboxamide], the IC50 amounted to 0.8 nM in test [1] (Homo sapiens, NCI-H441, 3 h); 0.66 nM in test [2] (Homo sapiens, ASPC1, 3 h); 0.83 nM in test [3] (setting [4]); 0.53 nM with NCI-H441 cells (setting [5]).
Turning to `CCn1c(-c2cc(C#CCN3CCCOCC3)c[n+]([O-])c2[C@H](C)OC)c2c3cc(ccc31)-c1csc(n1)C[C@H](NC(=O)[C@H]1[C@H](C)[C@@H]1C)C(=O)N1CCC[C@H](N1)C(=O)OCC(C)(C)C2` [Compound Z914, 5-(3-(1,4-oxazepan-4-yl)prop-1-yn-1-yl)-3-((6^3S,4S,Z)-4-((r,2R,3S)-2,3-dimethylcyclopropane-1-carboxamido)-1^1-ethyl-10,10-dimethyl-5,7-dioxo-6^1,6^2,6^3,6^4,6^5,6^6-hexahydro-1^1H-8-oxa-2(4,2)-thiazola-1(5,3)-indola-6(1.3)-pyridazinacycloundecaphane-1^2-yl)-2-((S)-1-methoxyethyl)pyridine-1-oxide], the half-inhibitory concentration (IC50) turned out to be 0.46 nM in test [1] (Homo sapiens, NCI-H441, 3 h); 0.25 nM in test [2] (Homo sapiens, ASPC1, 3 h); 0.58 nM in test [3] (setting [6]); 0.26 nM in the test on NCI-H441 cells (setting [6]).
As to `CCn1c(-c2cc(C#CCN3CCC3)cnc2[C@H](C)OC)c2c3cc(ccc31)-c1csc(n1)C[C@H](NC(=O)[C@H]1[C@H](C)[C@@H]1C)C(=O)N1CCC[C@H](N1)C(=O)OCC(C)(C)C2` [Compound Z361, (1r,2R,3S)—N-((6^3S,4S,Z)-1-(5-(3-(azetidin-1-yl)prop-1-yn-1-yl)-2-((S)-1-methoxyethyl)pyridin-3-yl)-1^1-ethyl-10,10-dimethyl-5,7-dioxo-6^1,6^2,6^3,6^4,6^5,6^6-hexahydro-1^1H-8-oxa-2(4,2)-thiazola-1(5,3)-indola-6(1,3)-pyridazinacycloundecaphane-4-yl)-2,3-dimethylcyclopropane-1-carboxamide formate], the 50% inhibitory concentration (IC50) in test [1] amounted to 2.61 nM; in test [2], 2.66 nM; in test [3] (setting [6]) it was 2.38 nM; with NCI-H441 cells (setting [6]), 2.25 nM.
On to `CCn1c(-c2cc(N3CCN(C)CC3)cnc2[C@H](C)OC)c2c3cc(ccc31)-c1csc(n1)C[C@H](Nc1cc(C)cnn1)C(=O)N1CCC[C@H](N1)C(=O)OCC(C)(C)C2` [Compound Z559, (6^3S,4S,Z)-1^1-ethyl-(R3)-1^2-(2-((S)-1-methoxyethyl)-5-(4-methylpiperazin-1-yl)pyridin-3-yl)-10,10-dimethyl-4-((5-methylpyridazin-3-yl)amino)-6^1,6^2,6^3,6^4,6^5,6^6-hexahydro-1^1H-8-oxa-2(4,2)-thiazola-1(5,3)-indola-6(1,3)-pyridazinacycloundecaphane-5,7-dione], for which the IC50 in test [1] (Homo sapiens, NCI-H441, 3 h) turned out to be 14.6 nM; in test [2] (Homo sapiens, ASPC1, 3 h), 45 nM; in test [3] (setting [4]), 47.5 nM; in the test on NCI-H441 cells (setting [5]), 17.5 nM.
